Results: patent US7842802B2, “Vinorelbine derivatives” (priority 2003, dated 2010)
Where two headings read alike, the source gives them in different places.

Experiments:
[1] = system: HOP-92; experiment: NCI 60-cell line growth inhibition assay, HOP-92; assay type: cell-based, human; conditions: Non-Small Cell Lung
Source text: (§1) The following data in Table 4 summarize the growth inhibition properties of several compounds of the present invention against 60-human transformed cell lines.

[2] = system: SK-MEL-2; experiment: NCI 60-cell line growth inhibition assay, SK-MEL-2; assay type: cell-based, human; conditions: Melanoma
Source text: as §1

[3] = system: UACC-257; experiment: NCI 60-cell line growth inhibition assay, UACC-257; assay type: cell-based, human; conditions: Melanoma
Source text: as §1

[4] = system: SR; experiment: NCI 60-cell line growth inhibition assay, SR; assay type: cell-based, human; conditions: Leukemia
Source text: as §1

[5] = system: OVCAR-8; experiment: NCI 60-cell line growth inhibition assay, OVCAR-8; assay type: cell-based, human; conditions: Ovarian
Source text: as §1

[6] = system: NCI-H460; experiment: NCI 60-cell line growth inhibition assay, NCI-H460; assay type: cell-based, human; conditions: Non-Small Cell Lung
Source text: as §1

[7] = system: DU-145; experiment: NCI 60-cell line growth inhibition assay, DU-145; assay type: cell-based, human; conditions: Prostate
Source text: as §1

[8] = system: MDA-MB-231/ATCC; experiment: NCI 60-cell line growth inhibition assay, MDA-MB-231/ATCC; assay type: cell-based, human; conditions: Breast
Source text: as §1

[9] = system: HT29; experiment: NCI 60-cell line growth inhibition assay, HT29; assay type: cell-based, human
Source text: as §1

[10] = system: SF-539; experiment: NCI 60-cell line growth inhibition assay, SF-539; assay type: cell-based, human; conditions: CNS
Source text: as §1

[11] = system: KM12; experiment: NCI 60-cell line growth inhibition assay, KM12; assay type: cell-based, human; conditions: Colon
Source text: as §1

[12] = system: SNB-75; experiment: NCI 60-cell line growth inhibition assay, SNB-75; assay type: cell-based, human; conditions: CNS
Source text: as §1

[13] = system: TK-10; experiment: NCI 60-cell line growth inhibition assay, TK-10; assay type: cell-based, human; conditions: Renal
Source text: as §1

[14] = system: K-562; experiment: NCI 60-cell line growth inhibition assay, K-562; assay type: cell-based, human
Source text: as §1

[15] = system: NCI-H23; experiment: NCI 60-cell line growth inhibition assay, NCI-H23; assay type: cell-based, human; conditions: Non-Small Cell Lung
Source text: as §1

[16] = system: LOX IMVI; experiment: NCI 60-cell line growth inhibition assay, LOX IMVI; assay type: cell-based, human; conditions: Melanoma
Source text: as §1

[17] = system: MDA-MB-435; experiment: NCI 60-cell line growth inhibition assay, MDA-MB-435; assay type: cell-based, human; conditions: Breast
Source text: as §1

[18] = system: RXF 393; experiment: NCI 60-cell line growth inhibition assay, RXF 393; assay type: cell-based, human; conditions: Renal
Source text: as §1

[19] = system: U251; experiment: NCI 60-cell line growth inhibition assay, U251; assay type: cell-based, human
Source text: as §1

[20] = system: MCF-7 human breast carcinoma line; experiment: MCF-7 GI50 determination (crystal violet); assay type: cell-based; conditions: MCF-7, 4 days of treatment, crystal violet, read-out: MCF-7 Cells GI50
Experimental: Growth inhibition (GI50) values were measured on the human breast carcinoma line, MCF-7. MCF-7 cells were plated at 2×10^4 cells/well in 96 well plates and grown for 24 hours in drug free media. On day 2, test compounds were added to the plates at 10-fold dilutions. Four days later, cells were fixed by the addition of glutaraldehyde to 0.75%. After 30 min, the fixed cells were extensively rinsed with distilled water and dried at room temperature for one hour. The cells were then stained with a 0.2% crystal violet solution for one hour at room temperature. Unbound stain was removed by ten rinses with tap water and plates were allowed to air dry for 30 min. The crystal violet was then solubilized by the addition of 10% acetic acid for 15 min and quantified by measuring absorbance at 570 nm on a Molecular Devices microplate reader. Growth inhibition was calculated according to the following equation: GI=[…], where the optical density (OD) of the test well after 4 days of treatment was T, the OD of the wells in the control plate on day 0 was T0. Plots of percent growth inhibition versus inhibitor concentration were used to determine the GI50.

[21] = system: UO-31; experiment: NCI 60-cell line growth inhibition assay, UO-31; assay type: cell-based, human; conditions: Renal
Source text: as §1

[22] = system: SF-268; experiment: NCI 60-cell line growth inhibition assay, SF-268; assay type: cell-based, human; conditions: CNS
Source text: as §1

[23] = system: IGROV1; experiment: NCI 60-cell line growth inhibition assay, IGROV1; assay type: cell-based, human
Source text: as §1

[24] = system: HOP-62; experiment: NCI 60-cell line growth inhibition assay, HOP-62; assay type: cell-based, human; conditions: Non-Small Cell Lung
Source text: as §1

[25] = system: MALME-3M; experiment: NCI 60-cell line growth inhibition assay, MALME-3M; assay type: cell-based, human; conditions: Melanoma
Source text: as §1

[26] = system: UACC-62; experiment: NCI 60-cell line growth inhibition assay, UACC-62; assay type: cell-based, human; conditions: Melanoma
Source text: as §1

[27] = system: HCT-15; experiment: NCI 60-cell line growth inhibition assay, HCT-15; assay type: cell-based, human; conditions: Colon
Source text: as §1

[28] = system: CCRF-CEM; experiment: NCI 60-cell line growth inhibition assay, CCRF-CEM; assay type: cell-based, human; conditions: Leukemia
Source text: as §1

[29] = system: RPMI-8226; experiment: NCI 60-cell line growth inhibition assay, RPMI-8226; assay type: cell-based, human
Source text: as §1

[30] = system: A549/ATCC; experiment: NCI 60-cell line growth inhibition assay, A549/ATCC; assay type: cell-based, human; conditions: Non-Small Cell Lung
Source text: as §1

[31] = system: SF-295; experiment: NCI 60-cell line growth inhibition assay, SF-295; assay type: cell-based, human; conditions: CNS
Source text: as §1

[32] = system: HS 578T; experiment: NCI 60-cell line growth inhibition assay, HS 578T; assay type: cell-based, human; conditions: Breast
Source text: as §1

[33] = system: NCI-H226; experiment: NCI 60-cell line growth inhibition assay, NCI-H226; assay type: cell-based, human; conditions: Non-Small Cell Lung
Source text: as §1

[34] = system: HeLa S-3 human cervical carcinoma cell line; experiment: HeLa GI50 determination (SRB); assay type: cell-based; conditions: HeLa S-3, 2 days of treatment, SRB, read-out: HeLa Cells GI50
Experimental: Growth inhibition (GI50) values were measured on the human cervical carcinoma cell line, HeLa S-3, which were selected for growth on plastic. The HeLa cell assay was based on the description of Skehan et al., J. Natl. Cancer Inst., 82:1107-12 (1990), which is hereby incorporated by reference in its entirety. HeLa cells were plated at 2×10^4 cells/well in 96 well plates. One day later, a control plate was fixed by the addition of TCA to 5%. After five rinses with tap water, the plate was air-dried and stored at 4° C. Test compounds were added to the remaining plates at 10-fold dilutions. Two days later, all plates were fixed as described above. Cells were then stained by the addition of 100 μL per well of 0.4% sulforhodamine B (SRB) in 1% acetic acid for 30 min at 4° C. Wells were then quickly rinsed 5× with 1% acetic acid and allowed to air dry. The SRB was then solubilized by the addition of 100 μL per well of unbuffered 10 mM Tris base. Dye was quantified by measuring absorbance at 490 nm on a Molecular Devices microplate reader. Growth inhibition was calculated according to the following equation: GI=100×(T−T0)/(C−T0), where the optical density (OD) of the test well after 2 days of treatment was T, the OD of the wells in the control plate on day 0 was T0 and C was the OD of untreated wells. Plots of percent growth inhibition versus inhibitor concentration were used to determine the GI50.

CCC1=C[C@H]2CN(C1)Cc1c([nH]c3ccc(I)cc13)[C@@](C(=O)OC)(c1cc3c(cc1OC)N(C)[C@H]1[C@@](O)(C(=O)OC)[C@H](OC(C)=O)C4C(CC)=CCN5CC[C@]31[C@H]45)C2 (stereo partly drawn) [Example 2, 11′-iodovinorelbine]
GI50 ([1]; Homo sapiens): 2250 nM
GI50 ([2]; Homo sapiens): 1400 nM
GI50 ([3]; Homo sapiens): 3430 nM
GI50 ([4]; Homo sapiens): 26.1 nM
GI50 ([5]; Homo sapiens): 51.7 nM
GI50 ([6]; Homo sapiens): 43.2 nM
GI50 ([7]; Homo sapiens): 25.7 nM
GI50 ([8]; Homo sapiens): 77.2 nM
GI50 ([9]; Homo sapiens, HT-29, Colon): 10.3 nM
GI50 ([10]; Homo sapiens): 37.9 nM
GI50 ([11]; Homo sapiens): 92.7 nM
GI50 ([12]; Homo sapiens): 40.4 nM
GI50 ([13]; Homo sapiens): 298 nM
GI50 ([14]; Homo sapiens, K562, Leukemia): 12.4 nM
GI50 ([15]; Homo sapiens): 52.8 nM
GI50 ([16]; Homo sapiens): 31.3 nM
GI50 ([17]; Homo sapiens): 1370 nM
GI50 ([18]; Homo sapiens): 60.5 nM
GI50 ([19]; Homo sapiens, U-251, CNS): 42.3 nM
GI50 ([20]; Homo sapiens, MCF7, 96 h): 7 nM
GI50 ([21]; Homo sapiens): 674 nM
GI50 ([22]; Homo sapiens): 78.8 nM
GI50 ([23]; Homo sapiens, IGROV-1, Ovarian): 32.4 nM
GI50 ([24]; Homo sapiens): 37 nM
GI50 ([25]; Homo sapiens): 65 nM
GI50 ([26]; Homo sapiens): 25.6 nM
GI50 ([27]; Homo sapiens): 1070 nM
GI50 ([28]; Homo sapiens): 37.9 nM
GI50 ([29]; Homo sapiens, Leukemia): 16.7 nM
GI50 ([30]; Homo sapiens): 58.6 nM
GI50 ([31]; Homo sapiens): 27 nM
GI50 ([32]; Homo sapiens): 19.2 nM
GI50 ([33]; Homo sapiens): 83.3 nM
GI50 ([34]; Homo sapiens, HeLa S3, 48 h): 25 nM

11′-bromovinorelbine [Example 1]
GI50 [1]: 1240 nM
GI50 [2]: < 10 nM
GI50 [3]: 5730 nM
GI50 [4]: > 100000 nM
GI50 [5]: < 10 nM
GI50 [6]: < 10 nM
GI50 [7]: < 10 nM
GI50 [8]: < 10 nM
GI50 ([9]; Colon): < 10 nM
GI50 [10]: < 10 nM
GI50 [11]: < 10 nM
GI50 [12]: 15100 nM
GI50 [13]: < 10 nM
GI50 ([14]; Leukemia): < 10 nM
GI50 [15]: < 10 nM
GI50 [16]: < 10 nM
GI50 [17]: < 10 nM
GI50 [18]: 10300 nM
GI50 ([19]; CNS): < 10 nM
GI50 [20]: 3 nM
GI50 [21]: < 10 nM
GI50 [22]: < 10 nM
GI50 ([23]; Ovarian): < 10 nM
GI50 [24]: < 10 nM
GI50 [25]: 53.6 nM
GI50 [26]: < 10 nM
GI50 [27]: < 10 nM
GI50 [28]: < 10 nM
GI50 [29]: < 10 nM
GI50 ([29]; Leukemia): < 10 nM
GI50 [30]: < 10 nM
GI50 [31]: < 10 nM
GI50 [32]: 679 nM
GI50 [33]: < 10 nM
GI50 [34]: 5 nM
